Results published in publication PMC6359144 (International Journal of Molecular Sciences, 2019).

What was measured:
[1] = system: MCF-7^Topo breast adenocarcinoma cells; assay: MTT assay, MCF-7^Topo breast carcinoma cells; assay type: cell-based; conditions: Homo sapiens, MCF7/Topo, read-out: IC50 MCF-7^Topo (72 h)
Protocol: HT-29 (ACC-299), HCT-116 (ACC-581) and DLD-1 (ACC-278) colon carcinoma, MCF-7 (ACC-115) breast carcinoma, KB-V1 (ACC-149), 518A2 (Department of Radiotherapy and Radiobiology, University Hospital Vienna) melanoma and Ea.Hy926 (ATCC no. CRL-2922) HUVEC derived endothelial hybrid cells line were grown in Dulbecco’s Modified Eagle Medium (DMEM; Biochrom), high glucose supplemented with 10% (v/v) fetal bovine serum (FBS; Biochrom.) and 1% (v/v) Antibiotic-Antimycotic solution (anti-anti; Thermo Scientific). HDFa human dermal fibroblasts (ATCC: PCS-201-012™) were grown in DMEM supplemented with 10% FBS, 1% anti-anti and 2 mM glutamine. The cells were incubated at 37 °C, 5% CO2, 95% humidified atmosphere. By repeated addition of topotecan or vinblastine at the maximum tolerated dose to the cell medium of MCF-7 and KB-V1 cells, the cells were rendered multidrug-resistant, indicated as MCF-7^Topo and KB-V1^Vbl, respectively. They were serially passaged following trypsinization by using 0.05% trypsin/0.02% EDTA (Biochrom). Mycoplasma contamination was routinely monitored, and only mycoplasma–free cultures were used.
MTT [3-(4,5-dimethylthiazol-2-yl)-2,5-diphenyltetrazolium bromide] (ABCR) was used to determine the cytotoxicity of test compounds as previously described. Briefly, HDFa human dermal fibroblasts and Ea.Hy926 endothelial hybrid cells (both 1 × 10^5 cells/mL, 100 µL/well), 518A2 melanoma, KB-V1^Vbl cervix carcinoma, MCF-7^Topo breast carcinoma, HT-29, DLD-1 and HCT-116 colon carcinoma (all 5 × 10^4 cells/mL, 100 µL/well) were grown in 96-well culture plates for 24 h. Then, various concentrations of the test compounds were added and the cells were incubated for 24-72 h at 37 °C. After adding 12.5 µL of a 0.5% MTT solution in PBS (final concentration 0.05%) to cell medium, microplates were incubated for 2 h and subsequently swiftly turned to discard the medium. The precipitate of formazan crystals was then dissolved in a 10% solution of SDS in DMSO containing 0.6% acetic acid. To ensure complete dissolution of formazan, microplates were incubated for at least 4 h at 37 °C. Finally, the absorbance at λ = 570 nm (formazan) and 630 nm (background) was measured using a microplate reader (Tecan F200). All experiments were carried out in quadruplicate and the percentage of viable cells was calculated as the mean ± SD with controls set to 100%. Selected graphs of MTT assays can be found in the Supporting Information (Figure S8).

recombinant human HDAC1 = molecular target: T1, recombinant human HDAC1 (Homo sapiens, UniProt Q13547); assay: HDAC1 inhibitor screening assay (fluorometric); assay type: biochemical; conditions: recombinant human HDAC1, mean ± SD of two experiments; read-out: HDAC inhibition IC50, HDAC1
T1 construct: purchased Cayman Chemicals
Protocol: The HDAC inhibitory potential of the novel compounds was determined by utilizing the deacetylase activity of recombinant human HDAC1 (HDAC1 Inhibitor Screening Assay Kit; Cayman Chemicals) or HDAC6 (HDAC6 Inhibitor Screening Kit (Fluorometric); Biovision) towards the corresponding synthetic acetylated-peptide substrates resulting in the release of a fluorescent product. The assays were performed according to manufacturer’s description of the in commercially available assay kits. […] The IC50 values were derived from dose-response curves and are expressed as the means ± SD of two independent experiments.

518A2 melanoma cells = assay: Cell cycle analysis by flow cytometry after PI staining; assay type: cell-based, human; conditions: 24 h; for cell cycle arresting effect: 518A2 cells, FACS
Protocol: The 518A2 melanoma cells (3 mL/well; 5 × 10^4 cells/mL) were grown on 6-well tissue culture plates for 24 h. After treatment with 4d (150, and 200 nM), 4e (0.8, and 1 µM), 4f (2, and 3 µM), or DMSO (control) for another 24 h, cells were fixed (70% EtOH, 24 h, 4 °C), washed with PBS and incubated with propidium iodide (PI; Carl Roth) staining solution (50 µg/mL PI, 0.1% sodium citrate, 50 µg/mL RNase A in PBS) for 30 min at 37 °C. […] The percentages of cells in the different phases of the cell cycle (G1, S and G2/M phase) were determined using the CXP Analysis software (Beckmann Coulter). The percentage of apoptotic cells was derived from sub-G1 peaks. Data was normally distributed for each group (Shapiro–Wilk test, p > 0.05). Since homogeneity of variance (Levene’s test, p < 0.05) was violated, a correction was calculated for Anova (Welch test).

[2] = system: p21, p27, cyclin D1 in 518A2 melanoma cells; assay: Western blot of cell cycle regulatory proteins; assay type: cell-based, human; conditions: 24 h; for effect on p21 expression: 4d […]–4 µM, SAHA 5 µM
Protocol: After harvesting and lysing of the cells, western blotting was performed as described before. For subsequent analysis, the protein-loaded membranes were incubated with antibodies directed against p21 (Abcam ab109199), p27 ([…]), cyclin D1 (Cell Signaling 29225) and GADPH (Santa Cruz sc25778) in 1:1000 dilutions. After incubation with horseradish peroxidase-coupled anti-IgG antibodies (1:10,000; Amersham), the blot was developed using the Celvin-S developer (Biostep) and the software SnapAndGo 1.8.1.

T1 sequence (Q13547 whole entry): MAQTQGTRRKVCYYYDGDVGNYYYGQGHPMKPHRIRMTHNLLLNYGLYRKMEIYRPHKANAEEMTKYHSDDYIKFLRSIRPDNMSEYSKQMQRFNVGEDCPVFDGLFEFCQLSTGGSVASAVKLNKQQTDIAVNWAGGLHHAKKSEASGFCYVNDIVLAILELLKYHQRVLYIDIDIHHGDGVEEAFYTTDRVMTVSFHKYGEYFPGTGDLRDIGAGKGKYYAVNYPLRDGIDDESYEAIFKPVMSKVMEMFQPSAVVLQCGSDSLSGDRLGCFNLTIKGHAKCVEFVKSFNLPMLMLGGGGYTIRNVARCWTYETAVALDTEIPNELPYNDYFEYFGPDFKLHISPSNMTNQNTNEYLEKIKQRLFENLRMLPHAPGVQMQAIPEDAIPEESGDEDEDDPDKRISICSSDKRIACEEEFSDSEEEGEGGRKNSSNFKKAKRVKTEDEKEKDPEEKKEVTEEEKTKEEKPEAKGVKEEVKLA

SMILES: COc1ccc(-c2ocnc2-c2cc(Br)c(OC)c(OC)c2)cc1OCCCCC(=O)NO [4e, N-Hydroxy-5-[1-methoxy-4-(4’-(3’’-bromo-4’’,5’’-dimethoxyphenyl)oxazol-5’-yl)-2-phenoxy]pentanamide]
- IC50 [1]: 3.4 ± 0.2 µM
- IC50 (recombinant human HDAC1): 3.8 ± 0.1 µM
- cells in G1 (518A2 melanoma cells; 0.8 µM): 43.1 ± 1.3%
- cells in G2/M (518A2 melanoma cells; 0.8 µM): 32.6 ± 1.7%
- cells in S (518A2 melanoma cells; 0.8 µM): 19.2 ± 0.7%
- cells in Sub-G1 (518A2 melanoma cells; 0.8 µM): 5.1 ± 1.2%
- cells in G1 (518A2 melanoma cells; 1 µM): 35.4 ± 1.1%
- cells in G2/M (518A2 melanoma cells; 1 µM): 34.9 ± 3.5%
- cells in S (518A2 melanoma cells; 1 µM): 19.0 ± 0.3%
- cells in Sub-G1 (518A2 melanoma cells; 1 µM): 10.8 ± 4.4%
- cell cycle arresting effect (518A2 melanoma cells): accumulation of 518A2 cells in G2/M phase

SMILES: COc1ccc(-c2ocnc2-c2cc(Br)c(OC)c(OC)c2)cc1OCCCCCC(=O)NO [4f, N-Hydroxy-6-[1-methoxy-4-(4’-(3’’-bromo-4’’,5’’-dimethoxyphenyl)oxazol-5’-yl)-2-phenoxy]hexanamide]
- IC50 [1]: 8.3 ± 0.7 µM
- IC50 (recombinant human HDAC1): 0.49 ± 0.05 µM
- cells in G1 (518A2 melanoma cells; 2 µM): 53.9 ± 0.8%
- cells in G2/M (518A2 melanoma cells; 2 µM): 22.2 ± 0.5%
- cells in S (518A2 melanoma cells; 2 µM): 18.3 ± 0.7%
- cells in Sub-G1 (518A2 melanoma cells; 2 µM): 5.6 ± 0.8%
- cells in G1 (518A2 melanoma cells; 3 µM): 54.2 ± 0.5%
- cells in G2/M (518A2 melanoma cells; 3 µM): 22.5 ± 0.3%
- cells in S (518A2 melanoma cells; 3 µM): 16.9 ± 0.6%
- cells in Sub-G1 (518A2 melanoma cells; 3 µM): 6.3 ± 0.9%
- cell cycle arresting effect (518A2 melanoma cells): induced a G1 phase arrest
- effect on p21 expression [2]: upregulated p21 expression in a dose-dependent way

SMILES: COc1ccc(-c2ocnc2-c2cc(Br)c(OC)c(OC)c2)cc1OCCCC(=O)NO [4d, N-Hydroxy-4-[1-methoxy-4-(4’-(3’’-bromo-4’’,5’’-dimethoxyphenyl)oxazol-5’-yl)-2-phenoxy]butanamide]
- IC50 [1]: 2.8 ± 0.3 µM
- IC50 (recombinant human HDAC1): 4 ± 0.1 µM
- cells in G1 (518A2 melanoma cells; 0.2 µM): 33.9 ± 3.4%
- cells in G2/M (518A2 melanoma cells; 0.2 µM): 35.4 ± 2.4%
- cells in S (518A2 melanoma cells; 0.2 µM): 16.3 ± 1.1%
- cells in Sub-G1 (518A2 melanoma cells; 0.2 µM): 14.4 ± 2.8%
- cell cycle arresting effect (518A2 melanoma cells): accumulation of 518A2 cells in G2/M phase
- effect on p21 expression [2]: distinctly suppressed p21 expression
- effect on cyclin D1 level ([2]; 4d 0.15–4 µM): increased the level of cyclin D1
